Reference: patent US12180192B2, “Modulators of THR-β and methods of use thereof” (ALIGOS THERAPEUTICS, INC., priority 2019, dated 2024)

What was measured:
[1] = target: T1, human thyroid receptor beta ligand-binding domain (LBD) (Homo sapiens, UniProt P10828); assay: TR-FRET thyroid receptor beta coactivator assay (THR biochemical assay, Assay 1); conditions: for EC50: THR-beta, TR-FRET coactivator assay, read-out: Activity category Assay 1 (EC50, THR-beta agonist); for Emax / Activity category Assay 1 THRβ (Emax): Table 5, Assay 1, THRβ; for Emax: read-out: Activity category Assay 1 THRβ (Emax)
T1 construct: purchased Invitrogen
T1 sequence (P10828 217-461 limits assumed): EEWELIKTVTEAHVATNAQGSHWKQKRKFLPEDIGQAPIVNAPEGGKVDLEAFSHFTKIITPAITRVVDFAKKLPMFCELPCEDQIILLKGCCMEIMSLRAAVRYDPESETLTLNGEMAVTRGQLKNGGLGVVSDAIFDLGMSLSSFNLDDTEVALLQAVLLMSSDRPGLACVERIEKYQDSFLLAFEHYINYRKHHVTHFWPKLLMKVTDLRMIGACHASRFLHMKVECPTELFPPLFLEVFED
Outline: (§1)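 GST-tagged human TRβ or TRα LBD, 1 nM final (stated for β), with fluorescein-SRC2-2 coactivator peptide (200 nM) and Tb-anti-GST antibody (2 nM). Agonists serially diluted, 1% DMSO final. 1 h incubation at rt in the dark; TR-FRET read as rise in fluorescein and drop in terbium emission.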

[2] = target: T2, human thyroid receptor alpha ligand-binding domain (LBD) (Homo sapiens, UniProt P10827); assay: TR-FRET thyroid receptor alpha coactivator assay (THR biochemical assay, Assay 1); conditions: for EC50: Table 4, THR-alpha, read-out: Activity category Assay 1 (EC50, THR-alpha agonist activity); for Emax / Activity category Assay 1 THRα (Emax): Table 5, THRα; for Emax: read-out: Activity category Assay 1 THRα (Emax)
T2 construct: purchased Invitrogen
T2 sequence (P10827 163-410 isoform P10827-2 limits assumed, other chains not shown): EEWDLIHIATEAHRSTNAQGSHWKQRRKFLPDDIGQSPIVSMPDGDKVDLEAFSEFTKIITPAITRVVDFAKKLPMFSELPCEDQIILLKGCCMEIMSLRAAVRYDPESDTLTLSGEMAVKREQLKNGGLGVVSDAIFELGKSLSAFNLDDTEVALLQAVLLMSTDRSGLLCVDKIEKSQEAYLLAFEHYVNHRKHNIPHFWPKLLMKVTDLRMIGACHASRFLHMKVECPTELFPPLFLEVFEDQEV
Outline: as §1

Row | SMILES | EC50 [1] | Emax [1] | EC50 [2] | Emax [2] | Activity category Assay 1 THRβ (Emax) [1] | Activity category Assay 1 THRα (Emax) [2]
1 | CC(C)c1c[nH]c2nnc(Oc3c(Cl)cc(-n4nc(C#N)c(=O)[nH]c4=O)cc3Cl)cc12 [Compound 52, 2-[3,5-dichloro-4-([5-isopropyl-7H-pyrrolo[2,3-c]pyridazin-3-yl]oxy)phenyl]-3,5-dioxo-4H-1,2,4-triazine-6-carbonitrile] | 50 to 250 nM | < 50% | 1000 to 25000 nM | < 50% |  | 
2 | Nc1nn(-c2cc(Cl)c(Oc3cc(C45CCC(C4)C5)c(=O)[nH]n3)c(Cl)c2)c(=O)[nH]c1=O [Compound 101] | 50 to 250 nM | < 50% | 250 to 1000 nM | < 50% |  | 
3 | Cc1cc(-n2nc(N)c(=O)[nH]c2=O)cc(C)c1Cc1cc2c(C(C)C)c[nH]c2cn1 [Compound 157, 6-amino-2-[4-[(3-isopropyl-1H-pyrrolo[2,3-c]pyridin-5-yl)methyl]-3,5-dimethyl-phenyl]-1,2,4-triazine-3,5-dione] | < 50 nM | > 75% | 250 to 1000 nM | 50 to 75% |  | 
4 | C[C@H]1C[C@H](c2cc(Oc3c(Cl)cc(-n4nc(N)c(=O)[nH]c4=O)cc3Cl)n[nH]c2=O)C1 (single isomer, unassigned) [Compound 86-A, 6-Amino-2-(3,5-dichloro-4-((5-((1r,3r)-3-methylcyclobutyl)-6-oxo-1,6-dihydropyridazin-3-yl)oxy)phenyl)-1,2,4-triazine-3,5(2H,4H)-dione] | 50 to 250 nM | < 50% | 250 to 1000 nM | < 50% |  | 
5 | Cc1cc(-n2nc(N)c(=O)[nH]c2=O)cc(C)c1Cc1ccc(O)c(-c2ccccc2)n1 [Compound 43, 6-amino-2-[4-[(5-hydroxy-6-phenylpyridin-2-yl)-methyl]-3,5-dimethylphenyl]-4H-1,2,4-triazine-3,5-dione] | < 50 nM | > 75% | < 50 nM | > 75% |  | 
6 | CC1(C)CC(c2cc(Oc3c(Cl)cc(-n4nc(N)c(=O)[nH]c4=O)cc3Cl)n[nH]c2=O)C1 [Compound 89, 6-Amino-2-(3,5-dichloro-4-((5-(3,3-dimethylcyclobutyl)-6-oxo-1,6-dihydropyridazin-3-yl)oxy)phenyl)-1,2,4-triazine-3,5(2H,4H)-dione] | < 50 nM | < 50% | 250 to 1000 nM | < 50% |  | 
7 | Nc1nn(-c2cc(Cl)c(Oc3cc(-c4ccc5ccccc5c4)c(=O)[nH]n3)c(Cl)c2)c(=O)[nH]c1=O [Compound 67, 6-amino-2-(3,5-dichloro-4-[[5-(naphthalen-2-yl)-6-oxo-1H-pyridazin-3-yl]oxy]phenyl)-4H-1,2,4-triazine-3,5-dione] | 50 to 250 nM | < 50% | 1000 to 25000 nM | < 50% |  | 
8 | Nc1nn(-c2cc(Cl)c(Oc3n[nH]c(=O)cc3-c3ccc4c(c3)CCCO4)c(Cl)c2)c(=O)[nH]c1=O [Compound 115] | 50 to 250 nM | < 50% | > 25000 nM | < 50% |  | 
9 | Cc1cc(-n2nc(C#N)c(=O)[nH]c2=O)cc(C)c1Cc1ccc2c(c1)C1(CC1)C(=O)N2 [Compound 148, 2-(3,5-dimethyl-4-((2′-oxospiro[cyclopropane-1,3′-indolin]-5′-yl)methyl)phenyl)-3,5-dioxo-2,3,4,5-tetrahydro-1,2,4-triazine-6-carbonitrile] | < 50 nM | < 50% | < 50 nM | 50 to 75% |  | 
10 | Nc1nn(-c2cc(Cl)c(Oc3n[nH]c(=O)cc3-c3ccc4ccccc4c3)c(Cl)c2)c(=O)[nH]c1=O [Compound 67-A, 6-amino-2-(3,5-dichloro-4-((4-(naphthalen-2-yl)-6-oxo-1,6-dihydropyridazin-3-yl)oxy)phenyl)-1,2,4-triazine-3,5(2H,4H)-dione] | < 50 nM | < 50% | > 25000 nM | < 50% |  | 
11 | Cc1cc(-n2nc(N)c(=O)[nH]c2=O)cc(C)c1Cc1ccc2c(c1)C1(CC1)C(=O)N2 [Compound 151, 6-Amino-2-(3,5-dimethyl-4-((2′-oxospiro[cyclopropane-1,3′-indolin]-5′-yl)methyl)phenyl)-1,2,4-triazine-3,5(2H,4H)-dione] | < 50 nM | 50 to 75% | < 50 nM | > 75% |  | 
12 | Cc1cc(-n2ncc(=O)[nH]c2=O)cc(C)c1Cc1ccc2[nH]cc(C(C)C)c2n1 [Compound 54, 2-[4-[(3-isopropyl-1H-pyrrolo[3,2-b]pyridine-5-yl)methyl]-3,5-dimethyl-phenyl]-1,2,4-triazine-3,5-dione] | < 50 nM | 50 to 75% | < 50 nM | < 50% |  | 
13 | CCC(C)c1cc(Oc2c(Cl)cc(-n3nc(N)c(=O)[nH]c3=O)cc2Cl)n[nH]c1=O (centres unmarked) [Compound 39-B] | < 50 nM |  | 50 to 250 nM |  | B (Emax≥50%, and <75%) | B (Emax≥50%, and <75%)
14 | Nc1nn(-c2cc(Cl)c(Oc3cc(-c4ccc5c(c4)CCCC5)c(=O)[nH]n3)c(Cl)c2)c(=O)[nH]c1=O [Compound 72, 6-Amino-2-(3,5-dichloro-4-((6-oxo-5-(5,6,7,8-tetrahydro-naphthalen-2-yl)-1,6-dihydro-pyridazin-3-yl)oxy)phenyl)-1,2,4-triazine-3,5(2H,4H)-dione] | 50 to 250 nM | < 50% | > 25000 nM | < 50% |  | 
15 | Cc1cc(-n2nc(C#N)c(=O)[nH]c2=O)cc(C)c1Cc1ccc2[nH]cc(C(C)C)c2n1 [Compound 31, 2-[4-[(3-isopropyl-1H-pyrrolo[3,2-b]pyridin-5-yl)methyl]-3,5-dimethyl-phenyl]-3,5-dioxo-1,2,4-triazine-6-carbonitrile] | < 50 nM | 50 to 75% | < 50 nM | < 50% |  | 
16 | Nc1nn(-c2cc(Cl)c(Oc3n[nH]c(=O)cc3-c3ccc4c(c3)CCCC4)c(Cl)c2)c(=O)[nH]c1=O [Compound 72-A, 6-amino-2-(3,5-dichloro-4-[[6-oxo-4-(5,6,7,8-tetrahydronaphthalen-2-yl)-1H-pyridazin-3-yl]oxy]phenyl)-4H-1,2,4-triazine-3,5-dione] | < 50 nM | < 50% | 50 to 250 nM | < 50% |  | 
17 | CC(C)c1cc(=O)[nH]c2ccc(Oc3c(Cl)cc(-n4nc(N)c(=O)[nH]c4=O)cc3Cl)cc12 [Compound 146, 6-amino-2-[3,5-dichloro-4-[(4-isopropyl-2-oxo-1H-quinolin-6-yl)oxy]phenyl]-1,2,4-triazine-3,5-dione] | < 50 nM | < 50% | 50 to 250 nM | < 50% |  | 
18 | Cc1cc(-n2nc(N)c(=O)[nH]c2=O)cc(C)c1Cc1ccc2[nH]cc(C(C)C)c2n1 [Compound 55, 6-amino-2-[4-[(3-isopropyl-1H-pyrrolo[3,2-b]pyridin-5-yl)methyl]-3,5-dimethyl-phenyl]-1,2,4-triazine-3,5-dione] | < 50 nM | 50 to 75% | < 50 nM | 50 to 75% |  | 
19 | Cc1ccc(-c2cc(Oc3c(Cl)cc(-n4nc(N)c(=O)[nH]c4=O)cc3Cl)n[nH]c2=O)cc1C [Compound 112] | 50 to 250 nM | < 50% | 250 to 1000 nM | < 50% |  | 
20 | CCC(C)c1cc(Oc2c(Cl)cc(-n3nc(N)c(=O)[nH]c3=O)cc2Cl)n[nH]c1=O (centres unmarked) [Compound 39-A] | < 50 nM |  | 250 to 1000 nM |  | C (Emax<50%) | B (Emax≥50%, and <75%)
21 | CC(C)c1cc(Oc2c(Cl)cc(-c3nn(C)c(=O)[nH]c3=O)cc2Cl)n[nH]c1=O [Compound 16, 6-[3,5-dichloro-4-[(5-isopropyl-6-oxo-1H-pyridazin-3-yl)oxy]phenyl]-2-methyl-4H-1,2,4-triazine-3,5-dione] | 50 to 250 nM | 50 to 75% | 250 to 1000 nM | < 50% |  | 
22 | Nc1nn(-c2cc(Cl)c(Oc3cc(C4CCC4)c(=O)[nH]n3)c(Cl)c2)c(=O)[nH]c1=O [Compound 40, 6-amino-2-[3,5-dichloro-4-[(5-cyclobutyl-6-oxo-1H-pyridazin-3-yl)oxy]phenyl]-4H-1,2,4-triazine-3,5-dione] | < 50 nM | 50 to 75% | 50 to 250 nM | 50 to 75% |  | 
23 | Nc1nn(-c2cc(Cl)c(Oc3ccc4c(c3)C3(CCCC3)C(=O)N4)c(Cl)c2)c(=O)[nH]c1=O [Compound 83] | < 50 nM | 50 to 75% | < 50 nM | 50 to 75% |  | 
24 | Cc1cccc(-c2cc(Oc3c(Cl)cc(-n4nc(N)c(=O)[nH]c4=O)cc3Cl)n[nH]c2=O)c1 [Compound 70, 6-Amino-2-(3,5-dichloro-4-((6-oxo-5-(m-tolyl)-1,6-dihydropyridazin-3-yl)oxy)phenyl)-1,2,4-triazine-3,5(2H,4H)-dione] | < 50 nM | < 50% | 50 to 250 nM | < 50% |  | 
25 | Cc1cc(-n2nc(C#N)c(=O)[nH]c2=O)cc(C)c1Cc1ccc2[nH]c(=O)cc(C(C)C)c2c1 [Compound 90, 2-(4-((4-Isopropyl-2-oxo-1,2-dihydroquinolin-6-yl)methyl)-3,5-dimethylphenyl)-3,5-dioxo-2,3,4,5-tetrahydro-1,2,4-triazine-6-carbonitrile] | < 50 nM | < 50% | 50 to 250 nM | < 50% |  | 
26 | Nc1nn(-c2cc(Cl)c(Oc3cc(C4CC5(CCC5)C4)c(=O)[nH]n3)c(Cl)c2)c(=O)[nH]c1=O [Compound 94] | 50 to 250 nM | < 50% | 250 to 1000 nM | < 50% |  | 
